Experimental data reported in EP0436598B1, “CELL SORTING TECHNIQUE AND APPLICATIONS THEREOF” (CETUS ONCOLOGY CORPORATION, priority 1988, dated 1990).

Experiments:
520C9 cells = experiment: MTT cell growth and viability assay after fluorescent dye labeling; type: cell-based, murine; conditions: labeled 20 minutes with hydroethidine 10 µg/ml at room temperature, washed, cultured three days in dye free medium; Figure 1
From the text: (§1) The effect of fluorescent dyes on cell viability can be measured using techniques well known to those skilled in the art. A most useful technique is described by Mosmann, T., J. of Immunol. Methods, 65:55 (1983) which measures cell viability as a function of cell number. Thus, the effect of fluorescent dyes on both cell viability and cell number can be measured simultaneously. The assay is based on the conversion of colorless tetrazolium salts by mitochrondrial dehydrogenase enzymes to a detectable colored product. A favored tetrazolium salt is MTT, or (3-(4,5- dimethylthylthiazol-2-yl)-2,5- diphenyl tetrazolium bromide).
(§2) Cell growth and viability was determined using the MTT assay as described by Mosmann, T., above. […] Each of the above cell lines was tested, and the results are shown in Figures 1, and 2 for 520C9 and 3G8 respectively. For both cell lines the assay was linear at least up to 10⁴ cells/well.
(§3) Next, the same cell lines were labeled in the presence or absence of either rhodamine 123 or hydroethidine, and subsequently cultured for three days during which cell number was measured. Cells were labeled in the presence of 0.5 µg/ml rhodamine 123 plus 10 µM verapamil, or 5 or 10 µg/ml hydroethidine. […]

3G8 cells = experiment: as above; type: cell-based, murine; conditions: hydroethidine at 10 µg/ml, Figure 2
From the text: as §1, §2, §3

Structure (SMILES): CCN1c2cc(N)ccc2-c2ccc(N)cc2C1c1ccccc1 (stereo not drawn) [hydroethidine]
- growth rate and cell numbers of 520C9 cells compared to cells grown in medium lacking the compounds (520C9 cells): virtually identical
- inhibition of 3G8 growth (3G8 cells; labeled 20 minutes, cultured three days): does inhibit
- start of inhibition of 3G8 growth (3G8 cells): about 24 hours
